From patent US20220409554A1, “ASCORBIC ACID AND QUINONE COMPOUND FOR CANCER TREATMENT” (IC-MedTech Corp., priority 2021, published 2022)
Where two headings read alike, the source gives them in different places.

Legend:
Assay type in all cases: cell-based
[1] = system: Leukemia T lymphocytes (Jurkat); assay: Antiproliferative activity, trypan blue staining and automated counting; settings: Homo sapiens
Method: (§1) The antiproliferative activity of vitamin C (L-ascorbic acid) and/or compound A6 was determined in Colon26 (colon cancer), GS9L (glioblastoma), Jurkat (leukemia), MCF7 (breast cancer), and U87MG (glioblastoma). Jurkat cells were cultured in RPMI-1640 medium supplemented with 10% heat-inactivated fetal bovine serum (FBS), penicillin (100 U/mL), and streptomycin (100 μg/mL). Normal lymphocytes were cultured in the same medium supplemented with 10% FBS only. Adhesive cancer cell lines (Colon26, GS9L, MCF7, and U87MG) were cultured in DMEM supplemented with 10% FBS, penicillin (100 U/mL), and streptomycin (100 μg/mL). Adhesive non-cancer cell lines, FHC and MCF10A, were cultured in DMEM-F12 and DMEM, respectively, each supplemented with 10% FBS and growth factors. EOC2 cells were cultured in DMEM supplemented with 10% FBS. All cells were cultured in a humidified atmosphere containing 5% CO2 at 37° C. The adhesive cells were released using a trypsin-EDTA solution (0.05% of trypsin/EDTA) and subsequently washed with PBS. The cells were collected by centrifugation (1,000×g/10 min for leukemia lymphocytes; 1,500×g/15 min for normal lymphocytes; and 800×g/5 min for adhesive cells) and placed in a fresh medium without antibiotics and growth factors prior to treatment with vitamin C and/or compound A6. The cells (1×10^6 cells/mL for non-adhesive and 3×10^5 cells/mL for adhesive) were incubated with vitamin C and/or compound A6 for different time intervals in a cell incubator. At each time interval, aliquots were removed for analyses. For lymphocytes, cell proliferation and viability were analyzed by trypan blue staining and automated counting using a COUNTESS automated cell counter. Briefly, 10 μL of trypan blue (0.4%) was added to 10 μL of a cell suspension and incubated for 30 s, and 10 μL of the cell suspension was placed in a COUNTESS glass chamber. The numbers of live and dead cells in the suspension were counted automatically. The linear range of operation with the automated cell counter was 1×10^4-5×10^6 cells/mL, and the optimal cell size was in the range of […].

[2] = system: Normal lymphocytes; assay: as above; settings: Lymphocyte, combination of vitamin C and compound A6 (weight ratio 100:1), concentration of the named component
Method: as §1

[3] = system: Lymphoma B lymphocytes (Raji); assay: as above; settings: Homo sapiens
[4] = system: Colon cancer cells (Colon 26); assay: Antiproliferative activity, CELLTITER-GLO luminescent cell viability assay; settings: Mus musculus
Method: (§2) The antiproliferative activity of vitamin C (L-ascorbic acid) and/or compound A6 was determined in Colon26 (colon cancer), GS9L (glioblastoma), Jurkat (leukemia), MCF7 (breast cancer), and U87MG (glioblastoma). Jurkat cells were cultured in RPMI-1640 medium supplemented with 10% heat-inactivated fetal bovine serum (FBS), penicillin (100 U/mL), and streptomycin (100 μg/mL). Normal lymphocytes were cultured in the same medium supplemented with 10% FBS only. Adhesive cancer cell lines (Colon26, GS9L, MCF7, and U87MG) were cultured in DMEM supplemented with 10% FBS, penicillin (100 U/mL), and streptomycin (100 μg/mL). Adhesive non-cancer cell lines, FHC and MCF10A, were cultured in DMEM-F12 and DMEM, respectively, each supplemented with 10% FBS and growth factors. EOC2 cells were cultured in DMEM supplemented with 10% FBS. All cells were cultured in a humidified atmosphere containing 5% CO2 at 37° C. The adhesive cells were released using a trypsin-EDTA solution (0.05% of trypsin/EDTA) and subsequently washed with PBS. The cells were collected by centrifugation (1,000×g/10 min for leukemia lymphocytes; 1,500×g/15 min for normal lymphocytes; and 800×g/5 min for adhesive cells) and placed in a fresh medium without antibiotics and growth factors prior to treatment with vitamin C and/or compound A6. The cells (1×10^6 cells/mL for non-adhesive and 3×10^5 cells/mL for adhesive) were incubated with vitamin C and/or compound A6 for different time intervals in a cell incubator. At each time interval, aliquots were removed for analyses. For other cell lines, cell proliferation and viability were analyzed using the CELLTITER-GLO luminescent cell viability assay. Briefly, 100 μL aliquots of a cell suspension were placed in a well of a 96-well plate and incubated with vitamin C and/or compound A6 for 24 and 48 h in a humidified atmosphere containing 5% CO2 at 37° C. The CELLTITER-GLO reagent containing luciferin and luciferase (100 μL) was added to each well, followed by incubation. The luminescence produced by the luciferase-catalyzed conversion of luciferin into oxyluciferin by living cells was detected using a microplate reader in a chemiluminescent mode.

[5] = system: Breast cancer cells (MCF7); assay: as above; settings: Homo sapiens, combination of vitamin C and compound A6 (weight ratio 100:1), concentration of the named component
Method: as §2

[6] = system: Human glioblastoma cells (U87MG); assay: as above; settings: U-87 MG, combination of vitamin C and compound A6 (weight ratio 100:1), concentration of the named component
Method: as §2

[7] = system: Normal colon epithelial cells (FHC); assay: as above; settings: combination of vitamin C and compound A6 (weight ratio 100:1), concentration of the named component
Method: as §2

[8] = system: Normal breast epithelial cells (MCF10A); assay: as above; settings: Homo sapiens, MCF-10A, combination of vitamin C and compound A6 (weight ratio 100:1), concentration of the named component
Method: as §2

[9] = system: Normal microglial cells; assay: as above; settings: combination of vitamin C and compound A6 (weight ratio 100:1), concentration of the named component
Method: as §2

[10] = combination of vitamin C and compound A6 (weight ratio 100:1), concentration of the named component, read-out: IC50
[11] = compound alone, read-out: IC50 (μM) Jurkat
[12] = compound alone, read-out: IC50 (μM) Raji
[13] = Colon26, compound alone, read-out: IC50 (μM) Colon26

IC50 [1, 10] [µM]	IC50 [1, 11] [µM]	IC50 [3, 10] [µM]	IC50 [3, 12] [µM]	IC50 [4, 13] [µM]	IC50 [4, 10] [µM]	IC50 [5] [µM]	IC50 [6] [µM]	SMILES	IC50 [2] [mM]	IC50 [7] [mM]	IC50 [8] [mM]	IC50 [9] [mM]
3	2000	5	> 2000	> 2000	4.8	3.5	11	O=C1O[C@H]([C@@H](O)CO)C(O)=C1O [Vitamin C, L-ascorbic acid]	> 0.02	> 0.02	> 0.02	> 0.02
300	5	500	> 20	> 20	480	350	1100	COC1=C(OC)C(=O)C(C)=CC1=O [Compound A6, 2,3-dimethoxy-5-methyl-1,4-benzoquinone]	> 2	> 2	> 2	> 2
